Measurements from patent US20220370463A1, “STABILIZED C-FMS INTRACELLULAR FRAGMENTS (FICD) PROMOTE OSTEOCLAST DIFFERENTIATION AND ARTHRITIC BONE EROSION” (New York Society for the Relief of the Ruptured and …, priority 2019, published 2022).

Tested on: K/BxN serum-induced arthritis
Assay: K/BxN serum transfer induced arthritis model
Format: in vivo, C57BL/6J mice
Method: (a and b) BMDMs from WT and FICDtg^M mice was stimulated with RANKL (50 ng/ml) at the indicated time. (a) RT-qPCR of Nfatc1 mRNA normalized relative to Hprt mRNA. (b) Immunoblot with anti NFATc1, HA, or α-tubulin antibodies. (c and d) BMDMs from Csf1r^f/+ Mx1-Cre mice were transduced by lentiviruses encoding FMS^wt, or FMS^mut and then cultured with M-CSF and RANKL. (c) Immunoblot of whole lysate with anti-NFATc1 antibody. α-tubulin was used as a control. […] The intensity of NFATc1 in FMS^mut was set as 100%. (d) Expression mRNA level of NFATc1. (e) Immunoblot of whole cell lysates with phospho-eIF4E antibodies. HA-tagged FICD was detected by HA-antibody. α-tubulin was used as a control. […] (f and g) Human CD14+ cells were treated with CGP57380 at the indicated doses for one hour and cultured with RANKL for one day. […] (g) Nfatc1 mRNA expression was measured by qPCR relative to HPRT. A DMSO-treated RANKL condition was set as 100%. (h) Osteoclastogenesis assay. BMDMs from WT and FICDtg^M mice were treated with CPG57380 at the indicated doses and then cultured with RANKL for three days. […] Scale bar: 100 μm. (i) Cell viability assay. BMDMs WT and FICDtg^M mice was stimulated with CPG57380 at the indicated doses for one day. (j-n) K/BxN serum transfer induced arthritis model. 9-week old male C57BL/6J mice were received K/BxN serum on day 0 and day 2. Vehicle or CPG57380 (40 mg/kg) was administrated intraperitoneally (i.p) at day 2 until day 13 (n=5-6). (j) Schematic diagram showing experimental design. (k) Ankle thickness. (1) Arthritis score. (m) Representative images of TRAP stained histological sections from calcaneocuboid and tarsometatarsal joints. (n) Histomorphometry analysis of tarsal bones. N.OC/B.Pm; Osteoclast number/bone parameter. OC.S/BS; osteoclast surface/bone surface. ES/BS; Eroded surface/bone surface (n=5-6). All data are shown as mean±SEM. *, p<0.05 by One-way ANOVA with a post hoc Tukey test (a, f-i,k,l) or two-tailed, unpaired t-test (d,e,n). Data represent at least three experiments.
FIGS. 11A-11E show calpain regulates FICD generation. (A-E) K/BxN serum transfer induced arthritis model. 8-week old male C57BL/6J mice were received K/BxN serum on day 0 and day 2. Vehicle or MDL28170 (10 mg/kg) was administrated intraperitoneally (i.p) at day 2 until day 11 (n=10). (A) K/BxN Experimental design. (B) Arthritis score. (C) Ankle thickness. (D) Representative images of TRAP stained histological sections from calcaneocuboid and tarsometatarsal joints. (E) Histomorphometry analysis of tarsal bones. N.OC/B.Pm; Osteoclast number/bone parameter. […]
Histomorphometry experiment was performed with tarsal bone of vehicle or MDL28170 treated mice. […] The quantification of osteoclast was performed in paraffin embedded tissues that were stained for TRAP and Methyl green (Vector Laboratories). […]

[1] = CGP57380 40 mg/kg i.p. day 2 until day 13
[2] = MDL28170 10 mg/kg i.p. day 2 until day 11

MDL28170
severity of arthritis: ankle joint thickness [1]: not affected
severity of arthritis: clinical score [1]: not affected
severity of arthritis: ankle joint thickness [2]: attenuated
severity of arthritis: clinical score [2]: attenuated
